# Data: US12240859B2, “Turbinmicin compounds, compositions and uses thereof” (Wisconsin Alumni Research Foundation, priority 2019, dated 2025)
# Where two headings read alike, the source gives them in different places.
# Experiments:
# C. auris [1] = test: Time kill experiments; format: cell-based, Candida auris; conditions: C. auris (B11211, FIG. 6A), 1x to 16x MIC, 0-48 h
# Description: FIGS. 6A-C show time-kill curves for turbinmicin against (6A) C. auris B11211, (6B) C. albicans K-1, and (6C) C. glabrata 4720.
# Time Kill Experiments. Fresh Candida colonies from an overnight growth were added to normal saline and the turbidity was adjusted to a 0.6 transmittance at 530 nm to provide a standard suspension (1*10^6 CFU/mL). This suspension was diluted with RPMI 1640 medium buffered with MOPS and a standard compound stock solution to achieve a starting inoculum of approximately 10^5 CFU/ml. Each 20 mL culture (RPMI 1640 medium buffered with MOPS) was incubated at 35° C. with constant shaking, and 0.1 mL samples were withdrawn for the determination of fungal counts at 0, 2, 4, 6, 8, 24 and 48 h. Colony counts were determined by viable counts on sabouraud agar plate (SDA) after incubation for 48 h. Growth control for each organism were prepared without antifungal and run in parallel.
# C. glabrata = test: In vitro MIC susceptibility testing, broth microdilution; format: cell-based, Candida glabrata
# Description: (§1) In vitro MIC susceptibility testing. […]. Amphotericin B was used as a positive control and the MICs range were 0.25-1.5 μg/mL. Six untreated media controls were included on each plate. The plates were incubated at 33° C. for 72 h. The MICs were determined as the lowest concentration that inhibited visible growth. The MICs were read at 24, 48, and 72 hours, respectively. […]
# [2] = Solubility of turbinmicin in aqueous solvents; format: physicochemical
# Description: In some embodiments, the pharmaceutical composition comprises turbinmicin and a pharmaceutically acceptable carrier comprising aqueous DMSO, e.g., DMSO in water, DMSO in 0.9% saline or DMSO in phosphate buffered saline (e.g., about 0.01 to about 0.1 molar Na/K phosphate buffer, about pH 7.4). In some embodiments the amount of DMSO in aqueous solution varies from at least about 1% by weight to about 80% by weight. […]. As turbinmicin had limited aqueous solubility, various solubilizing conditions (Table 4) were tested.
# C. tropicalis = test: In vitro MIC susceptibility testing, broth microdilution; format: cell-based; conditions: Candida tropicalis
# Description: In vitro MIC susceptibility testing. […] The plates were incubated at 33° C. for 72 h. The MICs were determined as the lowest concentration that inhibited visible growth. The MICs were read at 24, 48, and 72 hours, respectively.
# sheep red blood cells = test: Hemolysis assay; format: cell-based; conditions: 1 h, concentrations exceeding the MIC by 1000-fold
# Description: Hemolysis Assay. Assays were performed in 384-well plates using sheep blood (0.1% triton as the positive control). Sheep's blood (Ward's Science) was washed with PBS and diluted to a concentration of 6×10^7 red blood cells per ml. A volume of 50 μL of blood was incubated with compound for 1 h, and subsequently pelleted at 4000 rpm for 10 min. Thirty microliters of supernatant were transferred to a clear plate and OD570 was read. An increase in OD indicated the red blood cell lysis and hemolytic activity.
# Scedosporium spp. = test: In vitro MIC susceptibility testing; format: cell-based
# Description: as §1
# Rhizopus oryzae = test: In vitro MIC susceptibility testing; format: cell-based; conditions: Rhizopus arrhizus
# Description: as §1
# Apophysomyces elegans = test: In vitro MIC susceptibility testing; format: cell-based
# Description: as §1
# Mucor circinelloides = test: In vitro MIC susceptibility testing; format: cell-based
# Description: as §1
# Aspergillus fumigatus = test: In vitro MIC susceptibility testing; format: cell-based
# Description: as §1
# Lichteimia corymbiferea = test: In vitro MIC susceptibility testing; format: cell-based
# Description: as §1
# [3] = test system: Cynninghamella bertholletiae; test: In vitro MIC susceptibility testing; format: cell-based
# Description: as §1
# Rhizopus delemar = test: In vitro MIC susceptibility testing; format: cell-based
# Description: as §1
# A. fumigatus F11628 = test: Neutropenic murine nasal aspiration pneumonia model of invasive pulmonary aspergillosis; format: in vivo, Aspergillus fumigatus
# C. auris [4] = test: In vitro MIC susceptibility testing, broth microdilution; format: cell-based, Candida auris; conditions: Candidozyma auris
# Description: as §1
structure (smiles),measurement,setting,value
"C/C=C/C=C/C=C/C(=O)OC1C=CCC2C(=O)c3c(O)c4c5c(c3OC12)OCOC5CC1C(=O)c2cc(C)[nH]c(=O)c2C(=O)C41O (stereo not drawn) [Turbinmicin, turbinmicin]",time-kill activity,C. auris [1],Fungacidal activity was observed
same,MIC,C. glabrata; Nakaseomyces glabratus,0.5 µg/mL
same,MIC,C. glabrata; strain 513,0.5 µg/mL
same,MIC,"C. glabrata; strain 729, Fks2_HS1_S663P",0.5 µg/mL
same,MIC,C. glabrata; strain 5592,0.5 µg/mL
same,MIC,"C. glabrata; strain 14378, Fks1_HS1_S629P",0.5 µg/mL
same,Highest Turbmicin conc. Achieved,"[2]; No. 2, DMSO (1% in PBS)",≤0.5 mg/mL
same,Highest Turbmicin conc. Achieved,"[2]; No. 4, DMSO (10% in PBS)",2 mg/mL
same,Highest Turbmicin conc. Achieved,"[2]; No. 5, PEG 400 (50% in PBS)",≤0.5 mg/mL
same,Highest Turbmicin conc. Achieved,"[2]; No. 6, Kolliphor EL (10% in PBS)",≤0.5 mg/mL
same,Highest Turbmicin conc. Achieved,"[2]; No. 7, Tween 80 (2% in PBS)",≤0.5 mg/mL
same,solubility,"[2]; aqueous with cosolvent or surfactant or cyclodextrin, mixtures of DMSO and water, read-out: concentration solubilized",> 500 µg/mL
same,solubility,"[2]; pH 7.4, aqueous buffer, No. 1, PBS, read-out: Highest Turbmicin conc. Achieved",≤ 500 µg/mL
same,solubility,"[2]; pH 7.4, aqueous with cosolvent or surfactant or cyclodextrin, No. 3, DMSO (5% in PBS), read-out: Highest Turbmicin conc. Achieved",≤ 1000 µg/mL
same,solubility,"[2]; water, read-out: water solubility",< 500 µg/mL
same,MIC,"C. tropicalis; ATCC750, strain ATCC 750",0.25 µg/mL
same,MIC,C. tropicalis; strain 001,0.5 µg/mL
same,MIC,C. tropicalis; strain 98-234,0.5 µg/mL
same,MIC,C. tropicalis; strain 1751,0.25 µg/mL
same,MIC,C. tropicalis; strain 2597,0.25 µg/mL
same,red blood cell toxicity (hemolysis),sheep red blood cells,did not exhibit red blood cell toxicity
same,MIC,Scedosporium spp.,0.5 µg/mL
same,MIC,Rhizopus oryzae,> 8 µg/mL
same,MIC,Apophysomyces elegans,4 µg/mL
same,MIC,Mucor circinelloides,4 µg/mL
same,MIC,"Aspergillus fumigatus; strain 293, read-out: MIC",0.125 µg/mL
same,MIC,"Aspergillus fumigatus; strain F11628 (11628), Cyp51 G138C, triazole resistant",0.03 µg/mL
same,MIC,"Aspergillus fumigatus; strain F14403, Cyp51 G54R",0.25 µg/mL
same,MIC,"Aspergillus fumigatus; strain F14532, Cyp51 M220T",0.25 µg/mL
same,MIC,"Aspergillus fumigatus; strain F16216, Cyp51 L98H + TR",0.25 µg/mL
same,MIC,Lichteimia corymbiferea,4 µg/mL
same,MIC,[3],> 8 µg/mL
same,MIC,Rhizopus delemar,4 µg/mL
same,survival,"A. fumigatus F11628; mice, 0.25, 0.5 and 1 mg/kg IP every 6 hrs for 4 days, all three dosages",100%
same,CE/mL reduction of lung homogenate measured by qPCR,"A. fumigatus F11628; mice, dose of 1 mg/kg IP every 6 hrs for 4 days",1 log 10 CE/mL
same,MIC,C. auris [4]; strain B11104,0.5 µg/mL
same,MIC,C. auris [4]; strain B11203,0.5 µg/mL
same,MIC,"C. auris [4]; strain B11211, resistant to amphotericin B, fluconazole, micafungin, read-out: MIC",0.25 µg/mL
same,MIC,C. auris [4]; strain B11219,0.25 µg/mL
same,MIC,C. auris [4]; strain B11220,0.125 µg/mL
same,MIC,C. auris [4]; strain B11221,0.5 µg/mL
same,MIC,C. auris [4]; strain B11785,0.25 µg/mL
same,MIC,C. auris [4]; strain B11799,0.5 µg/mL
same,MIC,C. auris [4]; strain B11801,0.5 µg/mL
same,MIC,C. auris [4]; strain B11804,0.5 µg/mL
